Data published in ChEMBL document CHEMBL1759917, “Synthesis of purin-2-yl and purin-6-yl-aminoglucitols as C-nucleosidic ATP mimics and biological evaluation as FGFR3 inhibitors” (Eur J Med Chem, 2011).
Calls of active or inactive are those of the source. The calls are words filed in the database; no cut-off is given here.

Target: Fibroblast growth factor receptor 3 (Homo sapiens) (UniProt P22607)
Test: Inhibition of FGFR3 at 50 uM

Sequence of Fibroblast growth factor receptor 3 (Homo sapiens) (P22607 23-806 limits assumed): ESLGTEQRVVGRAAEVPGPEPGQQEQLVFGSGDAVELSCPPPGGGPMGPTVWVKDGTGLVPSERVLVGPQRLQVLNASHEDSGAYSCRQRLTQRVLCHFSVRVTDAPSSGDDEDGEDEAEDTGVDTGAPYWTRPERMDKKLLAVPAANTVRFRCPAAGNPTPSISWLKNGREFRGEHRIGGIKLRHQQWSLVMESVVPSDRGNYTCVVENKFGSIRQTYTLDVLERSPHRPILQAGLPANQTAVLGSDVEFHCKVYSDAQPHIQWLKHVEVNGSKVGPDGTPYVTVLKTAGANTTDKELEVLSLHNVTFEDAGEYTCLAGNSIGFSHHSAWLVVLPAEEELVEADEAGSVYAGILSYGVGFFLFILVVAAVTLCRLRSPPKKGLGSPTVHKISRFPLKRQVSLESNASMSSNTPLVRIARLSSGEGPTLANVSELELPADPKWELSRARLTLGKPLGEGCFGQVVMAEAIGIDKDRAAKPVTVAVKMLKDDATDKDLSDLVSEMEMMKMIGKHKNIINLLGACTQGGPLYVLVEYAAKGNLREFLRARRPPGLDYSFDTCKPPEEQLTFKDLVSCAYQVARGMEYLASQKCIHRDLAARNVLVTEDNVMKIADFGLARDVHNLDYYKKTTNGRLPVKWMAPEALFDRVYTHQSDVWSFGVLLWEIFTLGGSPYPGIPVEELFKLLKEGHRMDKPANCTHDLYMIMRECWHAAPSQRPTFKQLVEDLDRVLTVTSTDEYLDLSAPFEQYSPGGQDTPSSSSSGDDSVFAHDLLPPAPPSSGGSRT

With `OC[C@H]1O[C@@H](CNc2nc(NCCc3ccccc3)c3nc[nH]c3n2)[C@@H](O)[C@@H]1O` the “inhibition call (active / not active)” value was “Active”.

For `COc1ccc(CCNc2nc(NC[C@@H]3O[C@H](CO)[C@@H](O)[C@@H]3O)c3nc[nH]c3n2)cc1OC`, the “inhibition call (active / not active)” value was “Active”.

`Nc1ncc2ncn(C[C@@H]3O[C@H](CO)[C@@H](O)[C@H]3O)c2n1` was tested, and the “inhibition call (active / not active)” value was “inactive”.

In the case of `COc1ccc(CCNc2nc(NC[C@@H]3O[C@H](CO)[C@@H](O)[C@@H]3O)nc3[nH]cnc23)cc1OC`, the “inhibition call (active / not active)” value is reported as “Active”.

In the case of `OC[C@H]1O[C@@H](CNc2nc(NCCc3ccccc3)nc3[nH]cnc23)[C@@H](O)[C@@H]1O`, the “inhibition call (active / not active)” value is reported as “Active”.

`OC[C@H]1O[C@@H](CNc2nc(NCCN3CCOCC3)nc3[nH]cnc23)[C@@H](O)[C@@H]1O` was tested, and the “inhibition call (active / not active)” value was “Active”.

For `Nc1nc(Nc2ccccc2)c2ncn(C[C@@H]3O[C@H](CO)[C@@H](O)[C@H]3O)c2n1`, the “inhibition call (active / not active)” value was “inactive”.

For `OC[C@H]1O[C@@H](CNc2nc(I)nc3[nH]cnc23)[C@@H](OCc2ccccc2)[C@@H]1OCc1ccccc1`, the “inhibition call (active / not active)” value was “Active”.

In the case of `CCN(CC)CCCNc1nc(Nc2ccccc2)c2ncn(C[C@@H]3O[C@H](CO)[C@@H](O)[C@H]3O)c2n1`, the “inhibition call (active / not active)” value is reported as “inactive”.

For `Nc1nc(N)c2ncn(C[C@@H]3O[C@H](CO)[C@@H](O)[C@H]3O)c2n1`, the “inhibition call (active / not active)” value was “inactive”.

`Ic1nc(NCCN2CCOCC2)c2nc[nH]c2n1` was tested, and the “inhibition call (active / not active)” value was “Active”.

`OC[C@H]1O[C@@H](CNc2nc(NCCc3ccccc3)c3nc[nH]c3n2)[C@@H](OCc2ccccc2)[C@@H]1OCc1ccccc1` was tested, and the “inhibition call (active / not active)” value was “Active”.

With `OC[C@H]1O[C@@H](CNc2nc(NCCN3CCOCC3)c3nc[nH]c3n2)[C@@H](O)[C@@H]1O` the “inhibition call (active / not active)” value was “Active”.

In the case of `Nc1ncnc2c1ncn2C[C@@H]1O[C@H](CO)[C@@H](O)[C@H]1O`, the “inhibition call (active / not active)” value is reported as “inactive”.

In the case of `OC[C@H]1O[C@@H](CNc2nc(NCCc3ccccc3)nc3[nH]cnc23)[C@@H](OCc2ccccc2)[C@@H]1OCc1ccccc1`, the “inhibition call (active / not active)” value is reported as “Active”.

`CCN(CC)CCCNc1nc(N)c2ncn(C[C@@H]3O[C@H](CO)[C@@H](O)[C@H]3O)c2n1` was tested, and the “inhibition call (active / not active)” value was “inactive”.
